System: BMDMs
Experiment: MTT assay for cell viability
Assay type: cell-based, mouse
Conditions: different concentrations and times (Fig. 3b)
Experimental: The mouse macrophage cell line RAW264.7 (ATCC TIB-71; American Type Culture Collection) and HEK293T (ATCC-11268) cells were maintained in DMEM (Invitrogen) containing 10% FBS (Invitrogen), sodium pyruvate, nonessential amino acids, penicillin G (100 IU/ml), and streptomycin (100 μg/ml). Transient transfections were performed with Lipofectamine 3000 (Invitrogen), or calcium phosphate (Clontech), according to the manufacturer’s instructions. Raw264.7 stable cell lines were generated using a standard selection protocol with 2 μg/ml of puromycin. Mouse primary bone marrow derived-macrophages (BMDMs) were isolated from C57BL/6 mice and cultured in DMEM for 3–5 days in the presence of 25 ng/ml recombinant macrophage colony stimulating factor (R&D Systems, 416-ML, Minneapolis, MN, USA), as described previously. Human adherent monocytes were prepared from PBMCs donated by healthy subjects, as described previously.
Figure 3 TIPTP robustly suppresses LPS/ATP-mediated Rubicon-p22phox interaction and ROS-mediated inflammation. (a) Structure of the TIPTP. (b) MTT assay for cell viability. BMDMs were incubated with TIPTP for the indicated times at the indicated TIPTP concentrations (upper). WCLs were used for IB with α22phox, αRubicon, or αActin (lower). […] Quantitative analysis of mean fluorescence intensities of ROS (lower). […] (f) Culture supernatants were harvested and analyzed for cytokines by ELISA. […]

Structure (SMILES): C[C@@H](Oc1cccc(-n2cc3c(n2)CCCC3)c1)C(=O)Nc1nnc(C(F)(F)F)s1 [TIPTP, (R)-2-(3-(4,5,6,7-tetrahydro-2H-indazol-2-yl)phenoxy)-N-(5-(trifluoromethyl)-1,3,4-thiadiazol-2-yl)propanamide]
- cell viability of BMDMs: did not induce any significant change

— article PMC7067850, “Identification of highly potent and selective inhibitor, TIPTP, of the p22phox-Rubicon axis as a therapeutic agent for rheumatoid arthritis” (Scientific Reports, 2020)
